For 22 molecules, Ki results are on record in US8791148B2, “Substituted benzimidazolone derivatives, medicaments comprising them and their use” (AbbVie Deutschland GmbH & Co. KG, priority 2006, dated 2014).

This experiment deals with T1, human vasopressin V1b receptor (Homo sapiens, UniProt P47901).
T1 construct: expressed in transfected cells; host or cells: CHO-K1 (cell line hV1b-3H2_CHO), membrane preparation
T1 sequence (P47901 1-424): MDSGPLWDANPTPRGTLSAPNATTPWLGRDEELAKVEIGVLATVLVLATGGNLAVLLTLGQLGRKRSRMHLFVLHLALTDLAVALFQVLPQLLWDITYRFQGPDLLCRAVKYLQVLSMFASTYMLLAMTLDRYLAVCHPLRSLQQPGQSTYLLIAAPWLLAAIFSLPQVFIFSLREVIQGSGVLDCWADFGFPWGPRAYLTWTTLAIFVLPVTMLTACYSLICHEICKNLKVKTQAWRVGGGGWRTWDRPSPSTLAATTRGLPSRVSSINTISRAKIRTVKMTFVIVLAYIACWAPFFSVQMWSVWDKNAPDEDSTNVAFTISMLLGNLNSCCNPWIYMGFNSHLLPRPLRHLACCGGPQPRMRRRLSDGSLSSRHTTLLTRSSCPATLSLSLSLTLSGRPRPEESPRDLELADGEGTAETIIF
The experiment can be described thus: Vasopressin V1b receptor binding assay. The note with it: membranes from CHO-K1 cells with stably expressed human V1b receptors; displacement of 1.5 nM 3H-AVP; read-out: V1b receptor affinity (affinity constant Ki). As for the experimental part:
Vasopressin V1b Receptor Binding Assay:
The test substances were dissolved in a concentration of 10^−2 M in DMSO and further diluted to 5×10^−4 M to 5×10^−9 M in DMSO. This series of DMSO predilutions was diluted 1:10 with assay buffer. The substance concentration was again diluted 1:5 in the assay mixture (2% DMSO in the mixture).
The membrane pellet was again homogenized and centrifuged as described and then taken up in 50 mM Tris-HCl, pH 7.4, homogenized and stored in aliquots frozen in liquid nitrogen at −190° C.
The incubation buffer was: 50 mM Tris, 10 mM MgCl2, 0.1% BSA, pH 7.4. […] The nonspecific binding was determined with 1 uM AVP (Bachem #H1780). All determinations were carried out as triplicate determinations. After incubation (60 minutes at room temperature), the free radioligand was removed by vacuum filtration (Skatron cell harvester 7000) through Wathman GF/B glass fiber filter mats, and the filters were transferred into scintillation vials. The liquid scintillation measurement took place in a Tricarb model 2000 or 2200CA instrument (Packard). Conversion of the measured cpm into dpm was carried out with the aid of a standard quench series.
The binding parameters were calculated by nonlinear regression in SAS.
The above assay was used to measure the affinities of the compounds of the invention for the human vasopressin V1b receptor and to determine the affinity constants (Ki).
Regarding `COc1ccc(S(=O)(=O)n2c(=O)n(C(C(=O)N3CCN(C4CCN(C)CC4)CC3)c3ccccc3)c3cc(C#N)ccc32)cc1` (stereo not shown) [Example 11, 1-(4-Methoxybenzenesulfonyl)-3-{2-[4-(1-methylpiperidin-4-yl)piperazin-1-yl]-2-oxo-1-phenylethyl}-2-oxo-2,3-dihydro-1H-benzimidazole-5-carbonitrile], the Ki (usually the equilibrium dissociation constant of an inhibitor or competing ligand from its target) was in the range of 500 to 10000 nM.

On to `COc1ccc(S(=O)(=O)n2c(=O)n(C(C(=O)N3CCN(c4ccncc4)CC3)c3ccccc3OC)c3cc(Cl)ccc32)c(OC)c1` (stereo not shown) [Example 12, 5-Chloro-1-(2,4-dimethoxybenzenesulfonyl)-3-[1-(2-methoxyphenyl)-2-oxo-2-(4-pyridin-4-ylpiperazin-1-yl)ethyl]-1,3-dihydrobenzimidazol-2-one], for which the Ki was 500 to 10000 nM. On to `COc1ccccc1C(C(=O)N1CCN(c2ccncc2)CC1)n1c(=O)n(S(=O)(=O)c2cccc3cccnc23)c2ccc(Cl)cc21` (stereo not shown) [Example 13, 5-Chloro-3-[1-(2-methoxyphenyl)-2-oxo-2-(4-pyridin-4-ylpiperazin-1-yl)-ethyl]-1-(quinoline-8-sulfonyl)-1,3-dihydrobenzimidazol-2-one], for which the Ki is 500 to 10000 nM. Then `COc1ccccc1C(C(=O)N1CCN(c2ccncc2)CC1)n1c(=O)n(S(=O)(=O)c2ccc(C#N)cc2)c2ccc(Cl)cc21` (stereo not shown) [Example 14, 4-{5-Chloro-3-[1-(2-methoxyphenyl)-2-oxo-2-(4-pyridin-4-ylpiperazin-1-yl)ethyl]-2-oxo-2,3-dihydrobenzimidazole-1-sulfonyl}benzonitrile], with 500 to 10000 nM; and `COc1ccccc1C(C(=O)N1CCN(C2CCN(C)CC2)CC1)n1c(=O)n(S(=O)(=O)c2cccc3cccnc23)c2ccc(Cl)cc21` (stereo not shown) [Example 15, 5-Chloro-3-{1-(2-methoxyphenyl)-2-[4-(1-methylpiperidin-4-yl)piperazin-1-yl]-2-oxoethyl}-1-(quinoline-8-sulfonyl)-1,3-dihydrobenzimidazol-2-one], with 500 to 10000 nM; and `COc1ccccc1C(C(=O)N1CCN(C2CCN(C)CC2)CC1)n1c(=O)n(S(=O)(=O)c2ccc(C#N)cc2)c2ccc(Cl)cc21` (stereo not shown) [Example 16, 4-(5-Chloro-3-{1-(2-methoxyphenyl)-2-[4-(1-methylpiperidin-4-yl)piperazin-1-yl]-2-oxoethyl}-2-oxo-2,3-dihydrobenzoimidazole-1-sulfonyl)benzonitrile], with 500 to 10000 nM. As to `CCCN1CCN(C2CCN(C(=O)C(c3ccccc3)n3c(=O)n(S(=O)(=O)c4ccc(OC)cc4)c4ccc(Cl)cc43)CC2)CC1` (stereo not shown) [Example 17, 5-Chloro-1-(4-methoxybenzenesulfonyl)-3-{2-oxo-1-phenyl-2-[4-(4-propylpiperazin-1-yl)piperidin-1-yl]ethyl}-1,3-dihydrobenzimidazol-2-one], the Ki was < 100 nM.

On to `COc1ccc(S(=O)(=O)n2c(=O)n(C(C(=O)N3CCN(C4CCN(C)CC4)CC3)c3cccc(OC)c3)c3cc(Cl)ccc32)cc1` (stereo not shown) [Example 19, 5-Chloro-1-(4-methoxybenzenesulfonyl)-3-{1-(3-methoxyphenyl)-2-[4-(1-methylpiperidin-4-yl)piperazin-1-yl]-2-oxo-ethyl}-1,3-dihydrobenzimidazol-2-one], for which the Ki fell in the range of 100 to 500 nM.

As to `COc1ccc(S(=O)(=O)n2c(=O)n(C(C(=O)N3CCN(c4ccncc4)CC3)c3cccc(OC)c3)c3cc(Cl)ccc32)cc1` (stereo not shown) [Example 20, 5-Chloro-1-(4-methoxybenzenesulfonyl)-3-[1-(3-methoxyphenyl)-2-oxo-2-(4-pyridin-4-ylpiperazin-1-yl)ethyl]-1,3-dihydrobenzimidazol-2-one], the inhibition constant (Ki) is < 100 nM. For `COc1cccc(C(C(=O)N2CCN(c3ccncc3)CC2)n2c(=O)n(S(=O)(=O)c3ccc(OC)cc3OC)c3ccc(Cl)cc32)c1` (stereo not shown) [Example 21, 5-Chloro-1-(2,4-dimethoxybenzenesulfonyl)-3-[1-(3-methoxyphenyl)-2-oxo-2-(4-pyridin-4-ylpiperazin-1-yl)-ethyl]-1,3-dihydrobenzimidazol-2-one], the Ki was in the range of 100 to 500 nM. As for `COc1cccc(C(C(=O)N2CCN(C3CCN(C)CC3)CC2)n2c(=O)n(S(=O)(=O)c3ccc(C#N)cc3)c3ccc(Cl)cc32)c1` (stereo not shown) [Example 22, 4-(5-Chloro-3-{1-(3-methoxyphenyl)-2-[4-(1-methylpiperidin-4-yl)piperazin-1-yl]-2-oxoethyl}-2-oxo-2,3-dihydrobenzimidazol-1-sulfonyl)benzonitrile], the inhibition constant Ki was in the range of 100 to 500 nM. In the case of `CN1CCC(N2CCN(C(=O)C(c3ccccc3)n3c(=O)n(S(=O)(=O)c4ccc(C#N)cc4)c4ccc(C#N)cc43)CC2)CC1` (stereo not shown) [Example 23, 1-(4-Cyanobenzenesulfonyl)-3-{2-[4-(1-methylpiperidin-4-yl)piperazin-1-yl]-2-oxo-1-phenylethyl}-2-oxo-2,3-dihydro-1H-benzimidazole-5-carbonitrile], the inhibitory constant (Ki) was in the range of 500 to 10000 nM. As for `COc1ccc(S(=O)(=O)n2c(=O)n(CC(=O)N3CCN(c4ccncc4)CC3)c3cc(Cl)ccc32)cc1` [Example 24, 5-Chloro-1-(4-methoxybenzenesulfonyl)-3-[2-oxo-2-(4-pyridin-4-ylpiperazin-1-yl)-ethyl]-1,3-dihydrobenzimidazol-2-one], the inhibition constant Ki fell in the range of 100 to 500 nM.

Take `COc1ccc(S(=O)(=O)n2c(=O)n(CC(=O)N3CCN(c4ccncc4)CC3)c3cc(Cl)ccc32)c(OC)c1` [Example 25, 5-Chloro-1-(2,4-dimethoxybenzenesulfonyl)-3-[2-oxo-2-(4-pyridin-4-ylpiperazin-1-yl)-ethyl]-1,3-dihydrobenzimidazol-2-one]: the Ki fell in the range of 100 to 500 nM.

As to `N#Cc1ccc(S(=O)(=O)n2c(=O)n(CC(=O)N3CCN(c4ccncc4)CC3)c3cc(Cl)ccc32)cc1` [Example 26, 4-{5-Chloro-2-oxo-3-[2-oxo-2-(4-pyridin-4-ylpiperazin-1-yl)ethyl]-2,3-dihydrobenzimidazole-1-sulfonyl}benzonitrile], the Ki lay in the range of 500 to 10000 nM. As for `COc1ccc(S(=O)(=O)n2c(=O)n(C(Cc3ccccc3)C(=O)N3CCN(c4ccncc4)CC3)c3cc(Cl)ccc32)cc1` (stereo not shown) [Example 27, 3-[1-Benzyl-2-oxo-2-(4-pyridin-4-ylpiperazin-1-yl)ethyl]-5-chloro-1-(4-methoxybenzenesulfonyl)-1,3-dihydrobenzimidazol-2-one], the Ki was in the range of 100 to 500 nM. Regarding `COc1ccc(S(=O)(=O)n2c(=O)n(C(Cc3ccccc3)C(=O)N3CCN(c4ccncc4)CC3)c3cc(Cl)ccc32)c(OC)c1` (stereo not shown) [Example 28, 3-[1-Benzyl-2-oxo-2-(4-pyridin-4-ylpiperazin-1-yl)ethyl]-5-chloro-1-(2,4-dimethoxybenzenesulfonyl)-1,3-dihydrobenzimidazol-2-one], the Ki was < 100 nM.

With `N#Cc1ccc(S(=O)(=O)n2c(=O)n(C(Cc3ccccc3)C(=O)N3CCN(c4ccncc4)CC3)c3cc(Cl)ccc32)cc1` (stereo not shown) [Example 29, 4-{3-[1-Benzyl-2-oxo-2-(4-pyridin-4-ylpiperazin-1-yl)ethyl]-5-chloro-2-oxo-2,3-dihydrobenzimidazol-1-sulfonyl}-benzonitrile], the inhibition constant Ki was 500 to 10000 nM. As for `COc1ccc(S(=O)(=O)n2c(=O)n(C(C)C(=O)N3CCN(c4ccncc4)CC3)c3cc(Cl)ccc32)cc1` (stereo not shown) [Example 30, 5-Chloro-1-(4-methoxybenzenesulfonyl)-3-[1-methyl-2-oxo-2-(4-pyridin-4-ylpiperazin-1-yl)-ethyl]-1,3-dihydrobenzimidazol-2-one], the Ki is 500 to 10000 nM. In the case of `COc1ccc(S(=O)(=O)n2c(=O)n(C(C)C(=O)N3CCN(c4ccncc4)CC3)c3cc(Cl)ccc32)c(OC)c1` (stereo not shown) [Example 31, 5-Chloro-1-(2,4-dimethoxybenzenesulfonyl)-3-[1-methyl-2-oxo-2-(4-pyridin-4-ylpiperazin-1-yl)ethyl]-1,3-dihydrobenzimidazol-2-one], the Ki is 100 to 500 nM. In the case of `CC(C(=O)N1CCN(c2ccncc2)CC1)n1c(=O)n(S(=O)(=O)c2ccc(C#N)cc2)c2ccc(Cl)cc21` (stereo not shown) [Example 32, 4-{5-Chloro-3-[1-methyl-2-oxo-2-(4-pyridin-4-ylpiperazin-1-yl)ethyl]-2-oxo-2,3-dihydrobenzimidazole-1-sulfonyl}benzonitrile], the Ki lay in the range of 500 to 10000 nM. Then `COc1ccc(C(C(=O)N2CCN(c3ccncc3)CC2)n2c(=O)n(S(=O)(=O)c3ccc(OC)cc3)c3ccc(Cl)cc32)cc1` (stereo not shown) [Example 33, 5-Chloro-1-(4-methoxybenzenesulfonyl)-3-[1-(4-methoxyphenyl)-2-oxo-2-(4-pyridin-4-ylpiperazin-1-yl)-ethyl]-1,3-dihydrobenzimidazol-2-one], with 100 to 500 nM.
